Like-named read-outs stand apart in the source and are kept apart here.

What is called Ki is a dissociation constant, usually derived from enzyme kinetics or from competition with a known ligand. The EC50 is the midpoint of the concentration-response curve.

Data set [1] deals with T1, Bcl-2 protein (Homo sapiens, UniProt P10415, DELINS35-91DVEENRTEAPEGTESE, form not given).
T1 construct: fused on or other part: A short piece of the Bcl-xL (Q07817) loop replaces Bcl-2 loop residues 35-91; The C-terminal membrane anchor is absent
T1 sequence (P10415 with tags, fused parts or gaps with the stated changes): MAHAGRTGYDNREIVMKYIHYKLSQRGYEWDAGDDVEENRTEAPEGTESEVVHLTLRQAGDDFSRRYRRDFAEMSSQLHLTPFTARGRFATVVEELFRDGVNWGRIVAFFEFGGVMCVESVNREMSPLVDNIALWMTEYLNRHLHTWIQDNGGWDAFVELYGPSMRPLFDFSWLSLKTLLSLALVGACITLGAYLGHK
Description: Bcl-2 binding affinity, fluorescence polarization with fluorescein-labeled BAX peptide. The note with it: Wang's equation, read-out: Target Binding Affinity Ki (Bcl-2). For orientation: In fluorescence polarisation assays a small probe gives low polarisation when free and higher when bound to something large.

Data set [2] addresses Bcl-XL protein (Homo sapiens, UniProt Q07817). Description: Bcl-XL binding affinity, fluorescence polarization with fluorescein-labeled BAD peptide. The note with it: Wang's equation, read-out: Target Binding Affinity Ki (Bcl-XL).
The test system of data set [3] is NCI-H146 human small cell lung carcinoma cells. The data set can be described thus: Cellular efficacy in human tumor cell line (MTS viability assay). Format: cell-based. To be noted: NCI-H146, 10% human serum, 48 hours. Here is the method:
NCI-H146 (ATCC, Manassas, Va.) human small cell lung carcinoma cells were plated 50,000 cells per well in 96-well tissue culture plates in a total volume of 100 μL tissue culture medium supplemented with 10% human serum (Invitrogen, Carlsbad, Calif.) instead of fetal bovine serum and treated with a 2-fold serial dilution of the compounds of interest from 10 μM to 0.020 μM. Each concentration was tested in duplicate at least 3 separate times. The number of viable cells following 48 hours of compound treatment was determined using the CellTiter 96® AQueous non-radioactive cell proliferation MTS assay according to manufacturer's recommendations (Promega Corp., Madison, Wis.).
For orientation: Tetrazolium dyes change colour on reduction, which living cells bring about.

The nature of data set [4]: Pharmacokinetic evaluation in rat. Type of data set: in vivo. To be noted: male, Sprague-Dawley, plasma; for AUC(0-inf): single 5 mg/kg oral dose, Table 1, read-out: Pharmacokinetic area under the plasma concentration Curve (rat) AUC0-∞; for AUC / Cmax: 5 mg/kg, oral; for AUC: Table 3, read-out: Pharmacokinetic area under the plasma concentration Curve (rat) AUC; for Cmax: Table 3, read-out: Pharmacokinetic peak plasma concentration (rat) Cmax. The method, then: The pharmacokinetic behavior of compounds of this disclosure was determined following a single 2 mg/kg intravenous or 5 mg/kg oral dose in male Sprague-Dawley derived rats (n=3 per group). The compounds were prepared as 2 mg/mL solution in a 10% DMSO in PEG-400 formulation for both oral and intravenous administration. The 1 mL/kg intravenous dose was administered as a slow bolus (about 1-2 minutes) in the jugular vein of a rat under light ether anesthetic. The oral dose was administered by gavage. Serial blood samples were obtained from a tail vein of each rat prior 0.1 (IV only), 0.25, 0.5, 1, 1.5, 2, 3, 4, 6, 8 and 24 hours after dosing. The heparinized samples were thoroughly mixed and placed in an ice bath. Plasma was separated by centrifugation and stored frozen prior to analysis.
The compounds of interest were separated from the plasma using protein precipitation with acetonitrile. A plasma (100-200 μL, sample or spiked standard) aliquot was combined with 50 μL of internal standard (structurally related analog prepared in acetonitrile) and 1 ml acetonitrile in a 96-well polypropylene deep well plate. The plates were vortexed for 30 seconds followed by centrifugation (3500 rpm×15 minutes, 4° C.). In an automated manner, the supernatant was transferred to a clean 96-well plate. The samples were evaporated to near dryness on a Micro-Vap™ under a stream of dry nitrogen over low heat (˜37° C.). The samples were reconstituted vortexing with 0.2 mL 5% DMSO in acetonitrile. A 0.1-0.2 ml aliquot of acetonitrile: 0.1% trifluoroacetic acid (20:80, by volume) was added to each well, followed by an additional 30 second vortexing. The plates were centrifuged (3500 rpm×15 minutes, 4° C.) prior to HPLC-MS/MS analysis. Samples were analyzed simultaneously with spiked plasma standards. All samples from each study were analyzed as a single batch on the LC-MS/MS.
The compounds of interest and the internal standard were separated from each other and co-extracted contaminants on a 50×3 mm Keystone Betasil CN 5 μm column with an acetonitrile: 0.1% trifluoroacetic acid mobile phase (50:50, by volume) at a flow rate of 0.7 ml/min. Analysis was performed on a Sciex API 300™ Biomolecular Mass Analyzer using a heated nebulizer interface. Peak areas of the title compounds and internal standards were determined using the Sciex MacQuan™ software. Calibration curves were derived from peak area ratio (parent drug/internal standard) of the spiked rat plasma standards using least squares linear regression of the ratio versus the theoretical concentration. The methods were generally linear over the range of the standard curve (correlation coefficients >0.99) with an estimated quantitation limit of 0.01 μg/mL. The plasma concentration data for each animal were submitted to multi-exponential curve fitting using WinNonlin. The area under the plasma concentration-time curve from 0 to t hours (time of the last measurable plasma concentration) after dosing (AUC0-t) was calculated using the linear trapezoidal rule for the plasma concentration-time profiles. The residual area extrapolated to infinity, determined as the final measured plasma concentration (Ct) divided by the terminal elimination rate constant (β), was added to AUC0-t to produce the total area under the curve (AUC0-∞). Ki values shown in the tables below were determined using Wang's equation (Wang Z X., An Exact Mathematical Expression For Describing Competitive Binding Of Two Different Ligands To A Protein Molecule. FEBS Lett. 1995; 360:111-4)).

Where [5] appears, read: Table 1, read-out: NCI-H146 Cellular Efficacy EC50.
The mark [6] stands for this setting: Table 3, read-out: NCI-H146 Cellular Efficacy H146 EC50.

Bcl-XL protein, sequence (Q07817 with tags, fused parts or gaps DEL45-84): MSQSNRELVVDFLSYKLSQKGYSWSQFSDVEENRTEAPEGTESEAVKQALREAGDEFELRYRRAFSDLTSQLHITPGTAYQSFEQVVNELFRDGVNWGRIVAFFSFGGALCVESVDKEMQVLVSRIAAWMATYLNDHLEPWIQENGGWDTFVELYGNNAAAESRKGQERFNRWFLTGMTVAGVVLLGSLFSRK

In the case of `CC1(C)CCC(CN2CCN(c3ccc(C(=O)NS(=O)(=O)c4ccc(N[C@H](CCN5CCCC5)CSc5ccccc5)c(S(=O)(=O)C(F)(F)F)c4)cc3)CC2)=C(c2ccc(Cl)cc2)C1` [Example 34, N-(4-(4-((2-(4-chlorophenyl)-4,4-dimethylcyclohex-1-en-1-yl)methyl)piperazin-1-yl)benzoyl)-4-(((1R)-1-((phenylsulfanyl)methyl)-3-(pyrrolidin-1-yl)propyl)amino)-3-((trifluoromethyl)sulfonyl)benzenesulfonamide], the Ki in data set [1] and in data set [2] was no more than 1 nM throughout. Also, in data set [3] (setting [5]), the 50% effective concentration (EC50) turned out to be 20 nM. In addition, in data set [4], the AUC(0-inf) was 11.1 µM·h.
`CN(C)CC[C@H](CSc1ccccc1)Nc1ccc(S(=O)(=O)NC(=O)c2ccc(N3CCN(CC4=C(c5ccc(Cl)cc5)CC(C)(C)CC4)CC3)cc2)cc1S(=O)(=O)C(F)(F)F` [Example 37, N-(4-(4-((2-(4-chlorophenyl)-4,4-dimethylcyclohex-1-en-1-yl)methyl)piperazin-1-yl)benzoyl)-4-(((1R)-3-(dimethylamino)-1-((phenylsulfanyl)methyl)propyl)amino)-3-((trifluoromethyl)sulfonyl)benzenesulfonamide]: the Ki in data set [1] and in data set [2] was no more than 1 nM in each case. The EC50 in data set [3] (setting [5]) turned out to be 17.5 nM. Besides, the AUC(0-inf) in data set [4] came out at 7.3 µM·h.
On to `CC(C)N(C)CC[C@H](CSc1ccccc1)Nc1ccc(S(=O)(=O)NC(=O)c2ccc(N3CCN(CC4=C(c5ccc(Cl)cc5)CCCC4)CC3)cc2)cc1S(=O)(=O)C(F)(F)F` [Example 33, N-(4-(4-((2-(4-chlorophenyl)cyclohex-1-en-1-yl)methyl)piperazin-1-yl)benzoyl)-4-(((1R)-3-(isopropyl(methyl)amino)-1-((phenylsulfanyl)methyl)propyl)amino)-3-((trifluoromethyl)sulfonyl)benzenesulfonamide], for which the Ki in data set [1] and in data set [2] was no more than 1 nM each time. For the same compound, the concentration for a half-maximal effect (EC50) in data set [3] (setting [5]) is 37.8 nM; in data set [3] (setting [6]), 38 nM. The AUC in data set [4] worked out at 3.01 µM·h. The Cmax in data set [4] is 129 nM. In addition, the AUC(0-inf) in data set [4] came to 3.01 µM·h.
As to `O=C(NS(=O)(=O)c1ccc(N[C@H](CCN2CCCOCC2)CSc2ccccc2)c(S(=O)(=O)C(F)(F)F)c1)c1ccc(N2CCN(CC3=C(c4ccc(Cl)cc4)CCCC3)CC2)cc1` [Example 15, N-(4-(4-((2-(4-chlorophenyl)cyclohex-1-en-1-yl)methyl)piperazin-1-yl)benzoyl)-4-(((1R)-3-(1,4-oxazepan-4-yl)-1-((phenylsulfanyl)methyl)propyl)amino)-3-((trifluoromethyl)sulfonyl)benzenesulfonamide], the Ki in data set [1] and in data set [2] was no more than 1 nM each time. In data set [3] (setting [5]), the EC50 turned out to be 9.9 nM. Further, the AUC(0-inf) in data set [4] is 1.25 µM·h.
As to `O=C(NS(=O)(=O)c1ccc(N[C@H](CCN2C3CCC2CC3)CSc2ccccc2)c(S(=O)(=O)C(F)(F)F)c1)c1ccc(N2CCN(CC3=C(c4ccc(Cl)cc4)CCCC3)CC2)cc1` [Example 8, 4-(((1R)-3-(7-azabicyclo[2.2.1]hept-7-yl)-1-((phenylsulfanyl)methyl)propyl)amino)-N-(4-(4-((2-(4-chlorophenyl)cyclohex-1-en-1-yl)methyl)piperazin-1-yl)benzoyl)-3-((trifluoromethyl)sulfonyl)benzenesulfonamide], the Ki in data set [1] was no more than 1 nM. In addition, the Ki in data set [2] was no more than 1 nM. Further, the EC50 in data set [3] (setting [5]) worked out at 21.2 nM. Moreover, the EC50 in data set [3] (setting [6]) stood at 21 nM. For the same compound, in data set [4], the AUC came out at 1.1 µM·h, the Cmax was determined as 71 nM and the AUC(0-inf) was determined as 1.1 µM·h.
`CN(C)CC[C@H](CSc1ccccc1)Nc1ccc(S(=O)(=O)NC(=O)c2ccc(N3CCN(CC4=C(c5ccc(Cl)cc5)CCC(C)(C)C4)CC3)cc2)cc1S(=O)(=O)C(F)(F)F` [Example 20, N-(4-(4-((2-(4-chlorophenyl)-5,5-dimethyl-1-cyclohex-1-en-1-yl)methyl)piperazin-1-yl)benzoyl)-4-(((1R)-3-(dimethylamino)-1-((phenylsulfanyl)methyl)propyl)amino)-3-((trifluoromethyl)sulfonyl)benzenesulfonamide]: the inhibitory constant (Ki) in data set [1] and in data set [2] was no more than 1 nM each time. Moreover, in data set [3] (setting [5]), the EC50 amounted to 27.7 nM. In data set [4], the AUC(0-inf) amounted to 3.11 µM·h.
For the compound `O=C(NS(=O)(=O)c1ccc(N[C@H](CCN2CCOCC2)CSc2ccccc2)c(S(=O)(=O)C(F)(F)F)c1)c1ccc(N2CCN(CC3=C(c4ccc(Cl)cc4)CCOC3)CC2)cc1` [Example 21, N-(4-(4-((4-(4-chlorophenyl)-5,6-dihydro-2H-pyran-3-yl)methyl)piperazin-1-yl)benzoyl)-4-(((1R)-3-(morpholin-4-yl)-1-((phenylsulfanyl)methyl)propyl)amino)-3-((trifluoromethyl)sulfonyl)benzenesulfonamide], the Ki in data set [1] and in data set [2] was no more than 1 nM throughout. For the same compound, the EC50 in data set [3] (setting [5]) was 64.3 nM. In data set [4], the AUC(0-inf) is 1.81 µM·h.
Regarding `CC(C)N(C)CC[C@H](CSc1ccccc1)Nc1ccc(S(=O)(=O)NC(=O)c2ccc(N3CCN(CC4=C(c5ccc(Cl)cc5)CC(C)(C)CC4)CC3)cc2)cc1S(=O)(=O)C(F)(F)F` [Example 14, N-(4-(4-((2-(4-chlorophenyl)-4,4-dimethylcyclohex-1-en-1-yl)methyl)piperazin-1-yl)benzoyl)-4-(((1R)-3-(isopropyl(methyl)amino)-1-((phenylsulfanyl)methyl)propyl)amino)-3-((trifluoromethyl)sulfonyl)benzenesulfonamide], the inhibition constant (Ki) in data set [1] and in data set [2] was no more than 1 nM throughout. The 50% effective concentration (EC50) in data set [3] (setting [5]) came to 30.9 nM. Also, the AUC(0-inf) in data set [4] came out at 3.42 µM·h.
Consider `O=C(NS(=O)(=O)c1ccc(N[C@H](CCN2CCCC2)CSc2ccccc2)c(S(=O)(=O)C(F)(F)F)c1)c1ccc(N2CCN(CC3=C(c4ccc(Cl)cc4)CCCCC3)CC2)cc1` [Example 29, N-(4-(4-((2-(4-chlorophenyl)cyclohept-1-en-1-yl)methyl)piperazin-1-yl)benzoyl)-4-(((1R)-1-((phenylsulfanyl)methyl)-3-(pyrrolidin-1-yl)propyl)amino)-3-((trifluoromethyl)sulfonyl)benzenesulfonamide], for which the inhibitory constant (Ki) in data set [1] and in data set [2] was no more than 1 nM each time. Moreover, in data set [3] (setting [5]), the EC50 turned out to be 29.8 nM. Besides, in data set [4], the AUC(0-inf) is 1.74 µM·h.

The values are drawn from patent US8624027B2, “Combination therapy for treating cancer and diagnostic assays for use therein” (AbbVie Inc., priority 2005, dated 2014).
